Experimental findings from PubChem BioAssay AID179 (DTP/NCI, 2004) are described below.

Structures are written as SMILES. The source made the active and inactive calls.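 How the source made its calls: active means compounds giving half or more protection of infected cells from virus-caused growth loss, again on retest; inactive means the rest.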 Bounds are passed on as bounds.

In this experiment the test system is CEM cells HIV-1 protection, formazan growth assay. Kind of experiment: NCI AIDS Antiviral Assay. Conditions: for IC50: measured here: growth of uninfected CEM cells. The gist of the method:
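Category rules: moderately active means at least 50% protection on retest, and confirmed active means 100% protection reproducibly. The underlying data came from a formazan growth assay in HIV-1-infected CEM cells.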

On to `COc1cccc2c1C(=O)c1c(O)c3c(c(O)c1C2=O)C[C@@](O)(C(C)=O)CC3OC1CC(N=[N+]=[N-])C(OC)C(C)O1` (stereo partly specified), for which the result was inactive. Broadly, the EC50 is the concentration that produces a half-maximal response. As usually defined, the IC50 is the concentration that inhibits the measured activity by half. With `C[C@]12CCc3nonc3C1CC[C@@H]1C2CC[C@@]2(C)C1CC[C@@H]2O` (stereo partly specified), the EC50 is more than 214 µM and the IC50 is 174 µM.

Turning to `N#Cc1nsnc1-c1nc(-c2nsnc2C#N)nc(-c2nsnc2C#N)n1`, the EC50 was more than 200 µM and the IC50 came to 141 µM. Taken in the same sequence, the figures for `O=[N+]([O-])c1ccc(N=NN2CCCC2)cc1` were more than 200 µM and 18.6 µM. In the same order, the values of `C=C(C)CN1CCCN(S(=O)(=O)c2ccc(C)cc2)CC(=C)CN(S(=O)(=O)c2ccc(C)cc2)CCC1` are more than 200 µM and 5.25 µM. Regarding `O=C1NC(=O)C2(CCCCC2)N1`, the EC50 was more than 200 µM and the half-maximal inhibitory concentration (IC50) is more than 200 µM. Consider `N#CN=C(N)NC#N`, for which the EC50 is more than 1700 µM and the IC50 was more than 1700 µM.

Turning to `COc1ccc(CC2Cc3ccccc3CCN2)cc1OC` (stereo unspecified), the result was inactive. Regarding `C/C(CC(=O)Nc1ccc(C)cc1C)=N/N=C(N)N`, the EC50 was more than 191 µM and the IC50 was more than 191 µM. Turning to `CCOC(=O)CCC1(CCC(=O)OCC)CCCCCCCCC(CCC(=O)OCC)(CCC(=O)OCC)C(=O)C1=O`, the EC50 is more than 200 µM and the IC50 is more than 200 µM. With `CCSc1sc(=Nc2ccc(N=c3sc(C)c(SC)s3)cc2)sc1-c1ccc(C)cc1`, the result was inactive.

Take `CN(C)Cc1cc(C(=O)/C=C/c2ccc(O)cc2)cc(CN(C)C)c1O`: the result was inactive. On to `CO/N=C(\C(=O)[N-][n+]1cnn(CC(=O)O)c1)c1csc(N)n1`, for which the EC50 was more than 200 µM and the IC50 was more than 200 µM. As for `COc1c(OC(C)=O)cc2c(OC(C)=O)c1CC(C)CC(OC)C(O)C(C)/C=C(\C)C(OC(N)=O)C(OC)/C=C\C=C(/C)C(=O)N2` (stereo unspecified), the EC50 is more than 195 µM and the IC50 came to 3.02 µM.

Consider `COc1cccc(N2C(=O)C3c4[nH]c5ccccc5c4C4c5ccccc5CCC4C3C2=O)c1` (stereo unspecified), for which the EC50 is more than 100 µM and the IC50 was more than 100 µM. For `CC#N.CC#N.COC(=O)[C@@H]1CN(C(C)=O)C(=O)[N-]1.COC(=O)[C@@H]1CN(C(C)=O)C(=O)[N-]1.COC(=O)[C@@H]1CN(C(C)=O)C(=O)[N-]1.COC(=O)[C@@H]1CN(C(C)=O)C(=O)[N-]1.[Rh+2].[Rh+2]`, the EC50 is more than 200 µM and the IC50 was more than 200 µM. Take `CC(C)(C)OC(=O)N1N=NC2C3CC(=O)C(O3)C21` (stereo unspecified): the EC50 was more than 977 µM and the IC50 turned out to be 11 µM. In the case of `CCC(C)CCOC(=O)c1ccc(N=Cc2ccc(C=Nc3ccc(C(=O)OCCC(C)CC)cc3)cc2)cc1` (stereo unspecified), the EC50 was more than 6.61 µM and the IC50 is more than 6.61 µM. Take `NC(N)=N/N=C\c1ccc(C2CCNCC2)cc1`: the EC50 is more than 200 µM and the IC50 was more than 200 µM.

On to `CC(C)C1=CC23CCC4C(C)(C(=O)O)CCCC4(C)C2CC1C1C(=O)N(CCCCCCN2C(=O)C4C5CC6C7(C)CCCC(C)(C(=O)O)C7CCC6(C=C5C(C)C)C4C2=O)C(=O)C13` (stereo unspecified), for which the EC50 is more than 269 µM and the IC50 turned out to be 7.41 µM. For `CCN(CC)c1ccc(C(=C2C=CC(=[N+](CC)CC)C=C2)c2ccccc2)cc1`, the result was inactive. For `O=c1[nH]cc(N=Nc2ccc(S(=O)(=O)Nc3ccccn3)cc2)cc1O`, the EC50 was more than 200 µM and the IC50 amounted to 87.1 µM. In the same order, the values of `COc1ccccc1NC(=S)N/C=C(\C#N)S(=O)(=O)c1ccc(C)cc1` are more than 200 µM and more than 200 µM. With `C=C1C(=O)[C@@]23C(O)C[C@@H]4C(C)(C)CCC(O)C4(COC(C)=O)[C@@H]2CC[C@@H]1[C@H]3O` (stereo partly specified), the EC50 is more than 631 µM and the concentration for half-maximal inhibition (IC50) amounted to 0.372 µM. As to `Cc1cc(-n2nnc(C(=O)O)c2-c2ccccc2)c2ccc(Cl)cc2n1`, the EC50 was more than 200 µM and the IC50 was more than 200 µM. Consider `CCOc1ccc(N=Cc2cccc3cccnc23)cc1`, for which the result was inactive. Regarding `N#CC1=C(O)NC(O)=C(C#N)C1c1ccc(C2C(C#N)=C(O)NC(O)=C2C#N)cc1`, the EC50 is more than 631 µM and the IC50 is 35.5 µM. In the same order, the values of `COc1ccc2cc(C(=O)Nc3ccc(O)c(C(=O)O)c3)ccc2c1OC` are more than 200 µM and more than 200 µM. `CCOC(=O)/C(=C/N1C(=O)/C(=C/c2cccc([N+](=O)[O-])c2)SC1=S)C(=O)c1ccccc1`: the EC50 is more than 200 µM and the IC50 turned out to be 18.6 µM. Taken in the same sequence, the figures for `O=C(Nc1ccccc1C(=O)Nc1nccs1)c1ccccc1` were more than 200 µM and 32.4 µM. In the same order, the values of `O=C(NCCCl)N1CCC(CN=c2cc3n(-c4ccc(Cl)cc4)c4ccccc4nc-3cc2Nc2ccc(Cl)cc2)CC1` are more than 100 µM and 17 µM. In the same order, the values of `NC(=O)NC1=NC(Cc2ccccc2)C(=O)N1Cc1ccccc1` (stereo unspecified) are more than 200 µM and 182 µM. Turning to `CCOC(=O)c1c(NC(=O)CCl)ssc1=S`, the EC50 was more than 200 µM and the half-inhibitory concentration (IC50) is 50.1 µM. As to `O=[N+]([O-])c1cccc(S(=O)(=O)SSS(=O)(=O)c2cccc([N+](=O)[O-])c2)c1`, the EC50 was more than 40.7 µM and the IC50 is more than 40.7 µM. As to `Cc1ccc(S(=O)(=O)n2c3c(c4ccccc42)CCN2C(=O)C(S(=O)(=O)c4ccccc4)=CCC32)cc1` (stereo unspecified), the EC50 was more than 200 µM and the IC50 was determined as 0.589 µM. As to `COc1cc(C(=O)NO)ccc1O`, the EC50 was more than 8510 µM and the concentration for half-maximal inhibition (IC50) is 447 µM. Taken in the same sequence, the figures for `CCOC(=O)C(=Cc1ccc(N(C)C)cc1)C(=O)OCC` were more than 89.1 µM and 46.8 µM.

As for `CS(=O)(=O)c1nc(NCCc2ccccc2)c2cnn(C3CCCCO3)c2n1` (stereo unspecified), the result was inactive. `C=C(NC(=O)C(=C)NC(=O)c1csc(C2=NC3c4csc(n4)C4NC(=O)c5csc(n5)C(C(C)(O)C(C)O)NC(=O)C5CSC(=N5)/C(=C/C)NC(=O)C(C(C)O)NC(=O)c5csc(n5)C3(CC2)NC(=O)C(C)NC(=O)C(=C)NC(=O)C(C)NC(=O)C(C(C)CC)NC2C=Cc3c(C(C)O)cc(nc3C2O)C(=O)OC4C)n1)C(N)=O` (stereo unspecified) displayed a concentration for a half-maximal effect (EC50) of 8.91 µM and an IC50 of 43.7 µM.

On to `Cc1noc(C(F)(F)Sc2ncccn2)n1`, for which the EC50 is 174 µM and the IC50 is more than 200 µM. Taken in the same sequence, the figures for `Cc1[nH]c2ccccc2c1C(c1c(C)[nH]c2ccccc12)c1c(C)[nH]c2ccccc12` were 0.0631 µM and 58.9 µM.

As for `CC(C)(C)c1c(C(C)(C)C)c(=O)c1=O`, the EC50 was more than 200 µM and the IC50 is more than 200 µM. As for `COC(C)(C)C1(O)CC[C@@H](C)CC1=O` (stereo partly specified), the EC50 was more than 100 µM and the concentration for half-maximal inhibition (IC50) is more than 100 µM. As for `NCCC(=O)NCS(=O)(=O)O`, the EC50 was more than 200 µM and the IC50 was more than 200 µM.

For the compound `NC(=O)C(=CNc1nc(-c2ccc(Br)cc2)cs1)C(N)=O`, the EC50 was more than 200 µM and the IC50 stood at 135 µM.

`COC1/C=C/OC2(C)Oc3c(C)c(O)c4c(O)c(cc(OCC(=O)N(C)C)c4c3C2=O)NC(=O)/C(C)=C/C=C/C(C)C(O)C(C)C(O)C(C)C(OC(C)=O)C1C` (stereo unspecified): the EC50 was more than 200 µM and the IC50 was determined as 31.6 µM. In the same order, the values of `CC(C)(C)SSC(=S)C(c1ccccc1)c1ccccc1` are more than 200 µM and 182 µM. Consider `CC(=O)c1cc(I)c(O)c2ncccc12`, for which the EC50 is more than 79.4 µM and the IC50 was determined as 1.45 µM.

For `O=C1c2cc(O)c(O)cc2O[C@H](c2ccc(O)c(O)c2)[C@H]1O`, the EC50 was more than 200 µM and the IC50 is 170 µM.

Regarding `COC(=O)C1CC2c3[nH]c4ccccc4c3CCN2C1` (stereo unspecified), the EC50 is more than 275 µM and the 50% inhibitory concentration (IC50) is more than 275 µM. For the compound `O=[P+](O)c1cccnc1`, the result was inactive. For `O=C(Nc1cccc(C(F)(F)F)c1)C(=O)C(C(=O)c1ccc2ccccc2c1)C1OC(=O)c2ccccc21` (stereo unspecified), the EC50 is more than 50.1 µM and the IC50 was found to be 21.9 µM. Taken in the same sequence, the figures for `CCN(CC)/N=C\c1c2ccccc2cc2ccccc12` were more than 200 µM and 85.1 µM. In the same order, the values of `O=C1c2c(ccc3c2CCC3)CC1Cc1ccc2c(c1)CCC2` (stereo unspecified) are more than 200 µM and 35.5 µM. For the compound `OC/C=C/c1cccc(Cl)c1`, the result was inactive.

For `O=C(NC1CCC[C@H]1OC(=O)c1ccccc1)c1ccccc1` (stereo partly specified), the outcome was inactive. Consider `CCOC(=O)C(CC#N)(NC(C)=O)C(=O)OCC`, for which the EC50 is more than 200 µM and the IC50 was more than 200 µM. Consider `O=C1C=C(c2c(-c3ccccc3)[nH]c3ccccc23)C(=O)N1c1ccccc1`, for which the EC50 was more than 200 µM and the IC50 is 15.5 µM. Taken in the same sequence, the figures for `Fc1ccc2c3c([nH]c2c1)CCN(Cc1ccccc1)C3` were more than 200 µM and 38 µM. Taken in the same sequence, the figures for `CC(C)N(CCCNc1c2ccccc2nc2cccc([N+](=O)[O-])c12)C(C)C` were more than 200 µM and 0.0631 µM. In the same order, the values of `C=C1SC(=Nc2c(C)cccc2C)N(c2nc(Cl)nc(Cl)n2)C12CCCCC2` are more than 200 µM and 162 µM.

In the case of `COc1ccccc1NC(=O)/C(=C/C1CC(=O)NC1=S)C(C)=O` (stereo unspecified), the EC50 is more than 200 µM and the IC50 is more than 200 µM.

For `CN1CCN(Cc2cc3c(nn2)-c2ccccc2C3=O)CC1`, the EC50 is more than 200 µM and the IC50 amounted to 110 µM.

With `O=c1[nH]cnc2c(NC3OC(CO)C(O)C3O)cccc12` (stereo unspecified), the result was inactive. `O=C(O)C1=C(C(=O)O)C2c3ccccc3C1c1ccccc12`: the EC50 is more than 200 µM and the IC50 is more than 200 µM. For the compound `CCN(CC)c1ccc2cc(C(=O)NCc3ccccc3)c(=N)oc2c1`, the EC50 was more than 200 µM and the IC50 is 11 µM. In the same order, the values of `CC12CC3CC(C)(C1)CC(SCCCCCN=C(N)CSSCC(N)=NCCCCCSC14CC5CC(C)(CC(C)(C5)C1)C4)(C3)C2` are more than 200 µM and 26.9 µM. As for `COS(=O)c1cc(Cl)cc(Cl)c1OC(=O)CSSCC(=O)Oc1c(Cl)cc(Cl)cc1S(=O)OC` (stereo unspecified), the outcome was inactive. For the compound `CC(=O)Nc1ccc(CNc2cc(=O)[nH]c(=O)[nH]2)cc1`, the EC50 is more than 200 µM and the IC50 was more than 200 µM.
